Test results published in patent US10463644B2, “Uses of sesquiterpene lactone compounds and their derivatives in drugs preparation” (ACCENDATECH, priority 2013, dated 2019).
Read-outs that look alike come from different tables or passages of the source.

Columns and labels:
[1] = test system: TNF-α secreted by synoviocyte; assay: Content of TNF-α in culture supernatant of synoviocyte of RA model rats given test compound; format: in vivo; settings: rat RA model, dose 30 mg/kg.2d; normal control 0.38 ± 0.027, NaCl 0.74 ± 0.098
Summary of the method: (§1)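 RA model rats received test compound at 30 mg/kg.2d, with normal control and NaCl groups run in parallel. Synoviocytes were then cultured from the animals, and the culture supernatant was assayed for secreted cytokine or PGE2.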

[2] = test system: IL-1β secreted by synoviocyte; assay: Content of IL-1β in culture supernatant of synoviocyte of RA model rats given test compound; format: in vivo; settings: rat RA model, dose 30 mg/kg.2d; normal control 0.16 ± 0.034, NaCl 0.49 ± 0.136
Summary of the method: as §1

[3] = test system: PGE2 secreted by synoviocyte; assay: Content of PGE2 in culture supernatant of synoviocyte of RA model rats given test compound; format: in vivo; settings: rat RA model, dose 30 mg/kg.2d; normal control 8.34 ± 1.29, NaCl 32.44 ± 10.32
Summary of the method: as §1

[4] = test system: cancer stem cells; assay: Survival rate of cancer stem cells after test compound is added (flow cytometry, Annexin V-FITC/PI, clinical specimen); format: cell-based, patient; settings: Homo sapiens, 18 h
Summary of the method: (§2)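 Ficoll-isolated mononuclear cells from patient specimens (e.g. AML) in serum-free IMDM at 1×10^6/mL were exposed to compound for 18 hours. Cells were stained for stem-cell markers (CD34+CD38+ for AML) plus Annexin V-FITC/PI, and apoptosis was read by flow cytometry within one hour.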

[5] = test system: cancer cells; assay: Survival rate of cancer cells after test compound is added (flow cytometry, Annexin V-FITC/PI, clinical specimen); format: cell-based, patient; settings: Homo sapiens, 18 h, read-out: Survival rate (%) All cells (Stem cells and ordinary cells)
Summary of the method: as §2

[6] = Head and neck squamous cell carcinomas

Q: What does the source list for C=C1C(=O)O[C@@H]2[C@@H]3[C@@H](CC[C@@]3(C)O)[C@](C)(O)CC[C@@H]12 [Compound 49]?
A: Content of TNF-α in culture supernatant of synoviocyte (x ± s) [1]: 0.65 ± 0.046 ng/mL; Content of IL-1β in culture supernatant of synoviocyte (x ± s) [2]: 0.39 ± 0.075 ng/mL; Content of PGE2 in culture supernatant of synoviocyte (x ± s) [3]: 24.25 ± 1.94 ng/mL; viability at 10 µM ([4]; AML): 85%; viability at 20 µM ([4]; AML): 77%; viability at 10 µM ([4]; Brain glioma): 83%; viability at 20 µM ([4]; Brain glioma): 79%; viability at 10 µM ([4]; Brain tumor): 83%; viability at 20 µM ([4]; Brain tumor): 79%; viability at 10 µM ([4]; Breast cancer): 82%; viability at 20 µM ([4]; Breast cancer): 79%; viability at 10 µM ([4]; CLL): 82%; viability at 20 µM ([4]; CLL): 74%; viability at 10 µM ([4]; CML): 87%; viability at 20 µM ([4]; CML): 76%; viability at 10 µM ([4]; Children hepatoblastoma): 86%; viability at 20 µM ([4]; Children hepatoblastoma): 78%; viability at 10 µM ([4]; Colon adenocarcinoma): 85%; viability at 20 µM ([4]; Colon adenocarcinoma): 79%; viability at 10 µM ([4]; Colorectal cancer): 82%; viability at 20 µM ([4]; Colorectal cancer): 74%; viability at 10 µM ([4]; Gastric cancer): 85%; viability at 20 µM ([4]; Gastric cancer): 77%; viability at 10 µM ([4]; Gastrointestinal tumor): 85%; viability at 20 µM ([4]; Gastrointestinal tumor): 77%; viability at 10 µM ([4]; Glioma): 82%; viability at 20 µM ([4]; Glioma): 76%; viability at 10 µM [4, 6]: 82%; viability at 20 µM [4, 6]: 73%; viability at 10 µM ([4]; Laryngeal cancer): 84%; viability at 20 µM ([4]; Laryngeal cancer): 78%; viability at 10 µM ([4]; Liver cancer): 85%; viability at 20 µM ([4]; Liver cancer): 79%; viability at 10 µM ([4]; Lung adenocarcinoma): 84%; viability at 20 µM ([4]; Lung adenocarcinoma): 78%; viability at 10 µM ([4]; Lung cancer): 79%; viability at 20 µM ([4]; Lung cancer): 73%; viability at 10 µM ([4]; Malignant melanoma): 82%; viability at 20 µM ([4]; Malignant melanoma): 79%; viability at 10 µM ([4]; Nasopharynx cancer): 84%; viability at 20 µM ([4]; Nasopharynx cancer): 77%; viability at 10 µM ([4]; Ovarian cancer): 86%; viability at 20 µM ([4]; Ovarian cancer): 76%; viability at 10 µM ([4]; Pancreatic cancer): 81%; viability at 20 µM ([4]; Pancreatic cancer): 75%; viability at 10 µM ([4]; Prostate cancer): 85%; viability at 20 µM ([4]; Prostate cancer): 77%; viability at 10 µM ([4]; Retinoblastoma): 85%; viability at 20 µM ([4]; Retinoblastoma): 77%; viability at 10 µM ([4]; Skin cancer): 85%; viability at 20 µM ([4]; Skin cancer): 79%; viability at 10 µM ([5]; AML): 92%; viability at 20 µM ([5]; AML): 89%; viability at 10 µM ([5]; Brain glioma): 88%; viability at 20 µM ([5]; Brain glioma): 87%; viability at 10 µM ([5]; Brain tumor): 88%; viability at 20 µM ([5]; Brain tumor): 87%; viability at 10 µM ([5]; Breast cancer): 89%; viability at 20 µM ([5]; Breast cancer): 87%; viability at 10 µM ([5]; CLL): 91%; viability at 20 µM ([5]; CLL): 85%; viability at 10 µM ([5]; CML): 90%; viability at 20 µM ([5]; CML): 86%; viability at 10 µM ([5]; Children hepatoblastoma): 93%; viability at 20 µM ([5]; Children hepatoblastoma): 92%; viability at 10 µM ([5]; Colon adenocarcinoma): 93%; viability at 20 µM ([5]; Colon adenocarcinoma): 86%; viability at 10 µM ([5]; Colorectal cancer): 88%; viability at 20 µM ([5]; Colorectal cancer): 85%; viability at 10 µM ([5]; Gastric cancer): 92%; viability at 20 µM ([5]; Gastric cancer): 89%; viability at 10 µM ([5]; Gastrointestinal tumor): 92%; viability at 20 µM ([5]; Gastrointestinal tumor): 89%; viability at 10 µM ([5]; Glioma): 88%; viability at 20 µM ([5]; Glioma): 89%; viability at 10 µM [5, 6]: 91%; viability at 20 µM [5, 6]: 87%; viability at 10 µM ([5]; Laryngeal cancer): 91%; viability at 20 µM ([5]; Laryngeal cancer): 88%; viability at 10 µM ([5]; Liver cancer): 93%; viability at 20 µM ([5]; Liver cancer): 86%; viability at 10 µM ([5]; Lung adenocarcinoma): 91%; viability at 20 µM ([5]; Lung adenocarcinoma): 88%; viability at 10 µM ([5]; Lung cancer): 88%; viability at 20 µM ([5]; Lung cancer): 82%; viability at 10 µM ([5]; Malignant melanoma): 88%; viability at 20 µM ([5]; Malignant melanoma): 87%; viability at 10 µM ([5]; Nasopharynx cancer): 93%; viability at 20 µM ([5]; Nasopharynx cancer): 86%; viability at 10 µM ([5]; Ovarian cancer): 93%; viability at 20 µM ([5]; Ovarian cancer): 88%; viability at 10 µM ([5]; Pancreatic cancer): 87%; viability at 20 µM ([5]; Pancreatic cancer): 83%; viability at 10 µM ([5]; Prostate cancer): 92%; viability at 20 µM ([5]; Prostate cancer): 89%; viability at 10 µM ([5]; Retinoblastoma): 92%; viability at 20 µM ([5]; Retinoblastoma): 89%; viability at 10 µM ([5]; Skin cancer): 93%; viability at 20 µM ([5]; Skin cancer): 86%
